Measured values published in the supplement of paper PMC4862054.

What was measured:
Details in all cases: incubation time: 72 h
CAL-51 [1] = test: normalised response (% of control), CellTox Green; higher = less cell death (100 = DMSO, 0 = benzethonium chloride kill control)
How it was run: (§1)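 Breast cancer cell lines, seeded at 20 µl suspension per well, were incubated for 72 h in 384-well plates containing compound at 5 concentrations. These concentrations rose in 10-fold steps over a 10,000-fold range set for each compound. CellTox Green fluorescence (485/520 nm) was read, then CellTiter-Glo luminescence after 10 min at room temperature, and each plate was normalised to 0.1 % DMSO (100) and a positive kill control (0). Values are normalised signals, each at one concentration.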

HCC1599 [2] = test: as above
How it was run: as §1

HCC1937 [3] = test: as above
How it was run: as §1

MDA-MB-453 [4] = test: as above
How it was run: as §1

CAL-148 [5] = test: as above
How it was run: as §1

BT-474 [6] = test: as above
How it was run: as §1

CAL-85-1 [7] = test: as above
How it was run: as §1

MFM-223 [8] = test: as above
How it was run: as §1

BT-549 [9] = test: as above
How it was run: as §1

MDA-MB-231 [10] = test: as above
How it was run: as §1

MCF-10A [11] = test: as above
How it was run: as §1

MDA-MB-468 [12] = test: as above
How it was run: as §1

HCC1143 [13] = test: as above
How it was run: as §1

HDQ-P1 [14] = test: as above
How it was run: as §1

CAL-120 [15] = test: as above
How it was run: as §1

DU-4475 [16] = test: as above
How it was run: as §1

MDA-MB-436 [17] = test: as above
How it was run: as §1

CAL-51 [18] = test: normalised response (% of control), CellTiter-Glo; higher = more viable cells (100 = DMSO, 0 = benzethonium chloride kill control)
How it was run: as §1

HCC1599 [19] = test: as above
How it was run: as §1

HCC1937 [20] = test: as above
How it was run: as §1

MDA-MB-453 [21] = test: as above
How it was run: as §1

CAL-148 [22] = test: as above
How it was run: as §1

BT-474 [23] = test: as above
How it was run: as §1

CAL-85-1 [24] = test: as above
How it was run: as §1

MFM-223 [25] = test: as above
How it was run: as §1

BT-549 [26] = test: as above
How it was run: as §1

MDA-MB-231 [27] = test: as above
How it was run: as §1

MCF-10A [28] = test: as above
How it was run: as §1

SK-BR-3 = test: as above
How it was run: as §1

MDA-MB-468 [29] = test: as above
How it was run: as §1

HCC1143 [30] = test: as above
How it was run: as §1

HDQ-P1 [31] = test: as above
How it was run: as §1

CAL-120 [32] = test: as above
How it was run: as §1

DU-4475 [33] = test: as above
How it was run: as §1

MDA-MB-436 [34] = test: as above
How it was run: as §1

Hs578T [35] = test: as above
How it was run: as §1

Hs578T [36] = test: normalised response (% of control), CellTox Green; higher = less cell death (100 = DMSO, 0 = benzethonium chloride kill control)
How it was run: as §1

Row | SMILES | normalised response (CAL-51 [1]) | normalised response (HCC1599 [2]) | normalised response (HCC1937 [3]) | normalised response (MDA-MB-453 [4]) | normalised response (CAL-148 [5]) | normalised response (BT-474 [6]) | normalised response (CAL-85-1 [7]) | normalised response (MFM-223 [8]) | normalised response (BT-549 [9]) | normalised response (MDA-MB-231 [10]) | normalised response (MCF-10A [11]) | normalised response (MDA-MB-468 [12]) | normalised response (HCC1143 [13]) | normalised response (HDQ-P1 [14]) | normalised response (CAL-120 [15]) | normalised response (DU-4475 [16]) | normalised response (MDA-MB-436 [17]) | normalised response (CAL-51 [18]) | normalised response (HCC1599 [19]) | normalised response (HCC1937 [20]) | normalised response (MDA-MB-453 [21]) | normalised response (CAL-148 [22]) | normalised response (BT-474 [23]) | normalised response (CAL-85-1 [24]) | normalised response (MFM-223 [25]) | normalised response (BT-549 [26]) | normalised response (MDA-MB-231 [27]) | normalised response (MCF-10A [28]) | normalised response (SK-BR-3) | normalised response (MDA-MB-468 [29]) | normalised response (HCC1143 [30]) | normalised response (HDQ-P1 [31]) | normalised response (CAL-120 [32]) | normalised response (DU-4475 [33]) | normalised response (MDA-MB-436 [34]) | normalised response (Hs578T [35]) | normalised response (Hs578T [36])
1 | Cc1ccc(-c2cc(C(F)(F)F)nn2-c2ccc(S(N)(=O)=O)cc2)cc1 [Celecoxib] (1000 nM) | 117% | 99.1% | 111% | 105% | 104% | 101% | 104% | 96% | 115% | 106% | 81.4% | 121% | 104% | 112% | 101% | 101% | 105% | 118% | 99.6% | 109% | 99% | 91.3% | 100% | 93.3% | 100% | 107% | 96.4% | 112% | 101% | 99.8% | 99.9% | 100% | 98.1% | 94% | 101% | 107% | 
2 | CC[C@H](Nc1ncnc2[nH]cnc12)c1nc2cccc(F)c2c(=O)n1-c1ccccc1 [GS-1101] (1000 nM) | 88.6% | 93.7% |  | 107% | 80.2% | 98.7% | 94.1% | 101% | 105% | 84.2% | 112% | 88.1% | 97.4% | 106% | 96.9% | 96.9% |  | 97.3% | 110% | 94.9% | 89.6% | 97.7% | 84.6% | 93.2% | 90.3% | 82.8% | 85.5% | 78.9% | 79.6% | 86.9% | 84.9% | 87.7% | 89.9% | 92.3% | 85.3% | 100% | 93.8%
3 | CCc1cncnc1N1CCN(Cc2nc3ccc(C(F)(F)F)cc3[nH]2)CC1 (1000 nM) | 97% | 97.5% | 111% | 94.2% | 100% | 102% | 106% | 101% | 109% | 98.9% | 111% | 114% | 79.2% |  | 98.6% | 104% | 84.2% | 67% | 98.8% | 91.1% | 94.8% | 103% | 96.7% | 97.7% | 106% | 83.6% | 99.4% | 103% | 112% | 90.3% | 102% | 103% | 98.1% | 93.4% | 106% | 98.5% | 100%
4 | CC[C@@H]1C(=O)N(C)c2cnc(Nc3ccc(C(=O)NC4CCN(C)CC4)cc3OC)nc2N1C1CCCC1 [BI 2536] (100 nM) | 49.6% | 91.7% | 113% | 103% | 97.7% | 100% | 71.5% | 70.5% | 93% | 24.3% | 36.6% | 73.3% | 79.2% |  | 87.1% | 98.5% | 82.5% | 21.9% | 37.9% | 86.7% | 86.5% | 68.1% | 55.9% | 81.7% | 49.1% | 23.6% | 51% | 60.3% | 17.6% | 47.9% | 47.5% | 84% | 63.4% | 63.3% | 53.1% | 38.8% | 82%
5 | C[C@H]1C[C@@H]2[C@H]([C@@H](O)C[C@@]3(C)[C@H]2CC[C@]3(O)C(=O)CO)[C@@]2(C)C=CC(=O)C=C12 [Methylprednisolone] (1000 nM) | 108% | 109% | 127% | 98.5% | 107% | 98.6% | 104% |  | 131% | 142% | 108% | 109% | 108% | 105% | 101% | 103% |  | 108% | 105% | 97.9% | 101% | 108% | 151% | 117% | 106% | 100% | 159% | 96.7% | 94.5% | 119% | 109% | 83.2% | 80.5% | 100% | 105% | 114% | 105%
6 | Nc1ncn([C@H]2C[C@H](O)[C@@H](CO)O2)c(=O)n1 [Decitabine] (1000 nM) | 77.8% | 101% | 110% | 84.1% | 103% | 98.6% | 89.9% | 93.6% | 116% | 121% | 78.9% | 115% | 80.5% |  | 93.6% | 97.4% | 100% | 83.6% | 103% | 87.9% | 112% | 83.5% | 90.3% | 105% | 96.5% | 77.8% | 98.4% | 93.5% | 85.5% | 26.2% | 90.4% | 93.2% | 91.7% | 90.1% | 97.3% | 93% | 112%
7 | O=C(O)CCCCC(CCSCc1ccccc1)SCc1ccccc1 (stereo unspecified) [CPI-613] (1000 nM) | 111% | 95.5% | 117% | 103% | 94.6% | 98.6% | 96.8% | 98.7% | 92.6% | 109% | 92.8% | 114% | 58.7% |  | 102% | 100% | 81.4% | 114% | 108% | 101% | 103% | 100% | 98.5% | 97.1% | 108% | 102% | 102% | 103% | 100% | 108% | 102% | 102% | 98.1% | 99.1% | 99.5% | 106% | 103%
8 | COc1cc2c(Oc3ccc4[nH]c(C)cc4c3F)ncnc2cc1OCCCN1CCCC1 [Cediranib] (100 nM) | 109% | 102% | 123% | 105% | 106% | 104% | 91.2% | 84.1% | 126% | 113% | 98.1% | 98.6% | 112% |  | 96.8% | 98.4% | 90.2% | 107% | 98% | 98.1% | 102% | 103% | 104% | 100% | 97.9% | 108% | 103% | 95.4% | 103% | 111% | 97.3% | 102% | 103% | 97.3% | 106% | 104% | 97.6%
9 | COc1cc2c(NC3CCN(C(C)C)CC3)nc(C3CCCCC3)nc2cc1OCCCN1CCCC1 [UNC0638] (1000 nM) | 78.5% | 89.1% | 92.1% | 95.8% | 93% | 91.6% | 94.4% | 95.7% | 81.2% | 81.7% | 104% | 143% |  |  | 100% | 91.6% | 92.5% | 71.4% | 82.1% | 89.9% | 90.6% | 88.9% | 92.4% | 106% | 83.6% | 91.6% | 92% | 76.7% | 84.6% | 78.8% | 93.3% | 95.6% | 92.8% | 92.1% | 91.3% | 103% | 92.6%
